# In ChEMBL document CHEMBL5137015, “Design, synthesis, and evaluation of a novel series of mono-indolylbenzoquinones derivatives for the potential treatment of breast cancer” (Eur J Med Chem, 2022):
# Calls of active or inactive are those of the source. The rule behind the calls is not given here.
# Assays:
# MDA-MB-231 [1] = assay: Antiproliferative activity against human MDA-MB-231 cells assessed as inhibition of cell growth by MTT assay; assay type: functional, cell-based
# A549 = assay: Antiproliferative activity against human A549 cells assessed as inhibition of cell growth by MTT assay; assay type: functional, cell-based
# HeLa = assay: Antiproliferative activity against human HeLa cells assessed as inhibition of cell growth by MTT assay; assay type: functional, cell-based
# 4T1 [2] = assay: Antitumor activity against mouse 4T1 cells implanted in Balb/c mouse assessed as nuclei disappearance at 50 mg/kg administered intratumorally every four days for 14 days in the presence of liquid cyanoacrylate; assay type: functional, organism-based; conditions: route it(Intratumoral), time 14.0 day
# [3] = Toxicity in Balb/c mouse implanted with mouse 4T1 cells assessed as kidney lesions at 50 mg/kg administered intratumorally every four days for 14 days in the presence of liquid cyanoacrylate by H&E staining based histopathological analysis; assay type: organism-based; conditions: in vivo, other, 336 h, route it(Intratumoral), time 14 day
# [4] = Toxicity in Balb/c mouse implanted with mouse 4T1 cells assessed as liver lesions at 50 mg/kg administered intratumorally every four days for 14 days in the presence of liquid cyanoacrylate by H&E staining based histopathological analysis; assay type: organism-based; conditions: in vivo, other, 336 h, route it(Intratumoral), time 14 day
# Mus musculus = assay: Protection of Balb/c mouse spleen implanted with mouse 4T1 cells at 50 mg/kg administered intratumorally every four days for 14 days in the presence of liquid cyanoacrylate; assay type: functional, organism-based; conditions: route it(Intratumoral), time 14.0 day
# [5] = Toxicity in Balb/c mouse implanted with mouse 4T1 cells assessed as heart lesions at 50 mg/kg administered intratumorally every four days for 14 days in the presence of liquid cyanoacrylate by H&E staining based histopathological analysis; assay type: organism-based; conditions: in vivo, other, 336 h, route it(Intratumoral), time 14 day
# 4T1 [6] = assay: Antitumor activity against mouse 4T1 cells implanted in Balb/c mouse assessed as TUNEL positive cells at 50 mg/kg administered intratumorally every four days for 14 days in the presence of liquid cyanoacrylate by TUNEL staining analysis; assay type: functional; conditions: route it(Intratumoral), time 14 day
# 4T1 [7] = assay: Antitumor activity against mouse 4T1 cells implanted in Balb/c mouse assessed as apoptotic rate of dissected tumor cell at 50 mg/kg administered intratumorally every four days for 14 days in the presence of liquid cyanoacrylate by flow cytometric analysis (reference value: 64.83%); assay type: functional; conditions: route it(Intratumoral), time 14 day
# [8] = Toxicity in Balb/c mouse implanted with mouse 4T1 cells assessed as spleen lesions at 50 mg/kg administered intratumorally every four days for 14 days in the presence of liquid cyanoacrylate by H&E staining based histopathological analysis; assay type: organism-based; conditions: in vivo, other, 336 h, route it(Intratumoral), time 14 day
# 4T1 [9] = assay: Antitumor activity against mouse 4T1 cells implanted in Balb/c mouse assessed as tumor growth inhibition at 50 mg/kg administered intratumorally every four days for 14 days in the presence of liquid cyanoacrylate relative to control; assay type: functional; conditions: 4T1, 336 h, route it(Intratumoral), time 14 day, read-out: TGI
# [10] = Toxicity in Balb/c mouse implanted with mouse 4T1 cells assessed as lung lesions at 50 mg/kg administered intratumorally every four days for 14 days in the presence of liquid cyanoacrylate by H&E staining based histopathological analysis; assay type: organism-based; conditions: in vivo, other, 336 h, route it(Intratumoral), time 14 day
# 4T1 [11] = assay: Antitumor activity against mouse 4T1 cells implanted in Balb/c mouse assessed as tumor growth inhibition by measuring T/C ratio at 50 mg/kg administered intratumorally every four days for 14 days in the presence of liquid cyanoacrylate; assay type: functional; conditions: route it(Intratumoral), time 14 day
# MDA-MB-231 [12] = assay: Induction of cell cycle arrest in human MDA-MB-231 cells assessed as decrease in S phase cells at 10 uM incubated for 24 hrs by PI staining based flow cytometric analysis (reference value: 16.61%); assay type: functional; set-up: scale not given: the % may be the effect or the level left
# MDA-MB-231 [13] = assay: Induction of apoptosis in human MDA-MB-231 cells assessed as apoptotic cells at 10 uM incubated for 24 hrs by Annexin V-FITC/propidium iodide staining based flow cytometric method (reference value: 5.68%); assay type: functional
# MDA-MB-231 [14] = assay: Induction of cell cycle arrest in human MDA-MB-231 cells assessed as decrease in G1 phase cells at 10 uM incubated for 24 hrs by PI staining based flow cytometric analysis (reference value: 74.44%); assay type: functional; set-up: scale not given: the % may be the effect or the level left
# MDA-MB-231 [15] = assay: Induction of cell cycle arrest in human MDA-MB-231 cells assessed as increase in G2 phase cells at 10 uM incubated for 24 hrs by PI staining based flow cytometric analysis (reference value: 8.95%); assay type: functional
SMILES,IC50 (MDA-MB-231 [1]),IC50 (A549),IC50 (HeLa),also measured
Cc1[nH]c2ccccc2c1C1=C(Cl)C(=O)C(Cl)=C(NCCOc2ccccc2)C1=O,0.71 µM,> 10 µM,> 10 µM,
COc1ccc(CCNC2=C(Cl)C(=O)C(c3c(C)[nH]c4ccccc34)=C(Cl)C2=O)cc1OC,0.29 µM,0.72 µM,6.3 µM,
COC(=O)/C=C/C(=O)OCCNC1=C(Cl)C(=O)C(c2c(C)[nH]c3ccccc23)=C(Cl)C1=O,0.11 µM,0.15 µM,0.22 µM,
Cn1c(CCCC(=O)O)nc2cc(N(CCCl)CCCl)ccc21 [BENDAMUSTINE],,,> 20 µM,
O=C1c2c(O)ccc(O)c2C(=O)c2c(NCCNCCO)ccc(NCCNCCO)c21 [MITOXANTRONE],,,,Activity (4T1 [2]): Active; Activity [3]: Non-Toxic; Activity [4]: Non-Toxic; Activity (Mus musculus): Active; Activity [5]: Non-Toxic; Activity (4T1 [6]): 93.24%; Activity (4T1 [7]): 77.86%; Activity [8]: Non-Toxic; inhibition in vivo at 50 mg/kg (4T1 [9]): 59.8%; Activity [10]: Non-Toxic; T/C (4T1 [11]): 32%
COc1ccc(/C=C\c2cc(OC)c(OC)c(OC)c2)cc1O [COMBRETASTATIN A4],,,,Activity (MDA-MB-231 [12]): 8%; Activity (MDA-MB-231 [13]): 25.55%; Activity (MDA-MB-231 [14]): 8.4%; Activity (MDA-MB-231 [15]): 91.6%
COc1ccc(CCNC2=C(Cl)C(=O)C(Cl)=C(c3c(C)[nH]c4ccccc34)C2=O)cc1OC,1.49 µM,8.64 µM,9.73 µM,
Cc1[nH]c2ccccc2c1C1=C(Cl)C(=O)C(NCCc2cc3ccccc3[nH]2)=C(Cl)C1=O,0.83 µM,0.44 µM,3.11 µM,
Cc1[nH]c2ccccc2c1C1=C(Cl)C(=O)C(Cl)=C(NCCc2cc3ccccc3[nH]2)C1=O,0.62 µM,> 10 µM,> 10 µM,
COC(=O)/C=C/C(=O)OCCNC1=C(Cl)C(=O)C(Cl)=C(c2c(C)[nH]c3ccccc23)C1=O,0.14 µM,0.34 µM,0.11 µM,
Cc1[nH]c2ccccc2c1C1=C(Cl)C(=O)C(NCCOc2ccccc2)=C(Cl)C1=O,0.73 µM,7.09 µM,5.05 µM,

# The next lines start with results.
IC50 (MDA-MB-231 [1]),IC50 (A549),IC50 (HeLa),SMILES,also measured
0.12 µM,0.17 µM,0.35 µM,Cc1[nH]c2ccccc2c1C1=C(Cl)C(=O)C(Cl)=C(N2CCN(C=O)CC2)C1=O,
0.26 µM,8.38 µM,0.22 µM,COC(=O)/C=C/C(=O)OCCN1CCN(C2=C(Cl)C(=O)C(Cl)=C(c3c(C)[nH]c4ccccc34)C2=O)CC1,
0.19 µM,0.16 µM,0.19 µM,C#CCNC1=C(Cl)C(=O)C(Cl)=C(c2c(C)[nH]c3ccccc23)C1=O,
0.14 µM,0.32 µM,0.33 µM,COC(=O)/C=C/C(=O)OCCN1CCN(C2=C(Cl)C(=O)C(c3c(C)[nH]c4ccccc34)=C(Cl)C2=O)CC1,
0.2 µM,0.37 µM,0.74 µM,Cc1[nH]c2ccccc2c1C1=C(Cl)C(=O)C(N2CCN(C=O)CC2)=C(Cl)C1=O,
0.2 µM,0.17 µM,0.25 µM,Cc1[nH]c2ccccc2c1C1=C(Cl)C(=O)C(N2CCOCC2)=C(Cl)C1=O,Activity (MDA-MB-231 [12]): 7.67%; Activity (MDA-MB-231 [13]): 31.74%; Activity (MDA-MB-231 [14]): 10.44%; Activity (MDA-MB-231 [15]): 81.89%
0.17 µM,0.67 µM,0.92 µM,C#CCNC1=C(Cl)C(=O)C(c2c(C)[nH]c3ccccc23)=C(Cl)C1=O,
